Laboratory results reported in patent US20230329304A1, “METABOLIC THERAPY OF CANCER” (AMINOVITA S.L., priority 2020, published 2023).

Experiments:
CT26.WT cancer cells [1] = experiment: Survival of mice with colon cancer (CT26.WT cells, intraperitoneal model); assay type: in vivo, female BALB/cAnNRJ mice
From the text: (§1) All mice were purchased from Janvier Labs® (France). Male BALB/cAnNRJ mice were used for the renal cancer model (Renca cells, intraperitoneal model). Female BALB/cAnNRJ mice were used for the colon cancer models (CT26WT cells, intraperitoneal and intravenous models), and for the triple negative breast cancer model (4T1 cells, intravenous model). Female C57BL/6J mice were used for the lung cancer model (LLc1 cells, intravenous model) and for the melanoma model (B16-F10 cells, intravenous model). All mice were 12 weeks or older at the beginning of the experiments. Treatments started 8 days after the injection of the cancer cells for the 4T1 breast cancer model and for the Renca renal cancer model (when the number of injected cells was 100.000). Treatments started 7 days after the injection for the Renca cancer model when the number of inoculated cells was 150.000, and for the LLc1 lung cancer model. Treatments started 4 days after the injection in the CT26WT colon cancer models (intraperitoneal and intravenous) and in the B16-F10 melanoma model.
Murine cells (5th-7th passage) were cultured in 75-cm2 flask. When the cells were approximately 60-70% confluent, medium was removed and cells were washed twice with sterile PBS. Then, cells were incubated with trypsin/EDTA solution for 2-3 min at 37° C. to allow cells to have a rounded shape but without detaching. Next, trypsin/EDTA solution was aspirated, cells were resuspended in 5 mL sterile PBS and the cell suspension was pipetted up and down to break up any cell aggregate before adding 10% FBS supplemented medium. […] Cells were counted again. […] After inoculating the last mice, the cells in the last tube were placed in a flask and monitored during several weeks under the microscope to ensure that all mice were inoculated with viable cells.
(§2) One day before the start of the treatments, mice were housed in individual cages to avoid cannibalism. […] Animals were monitored daily and body weights were determined periodically (at least three times per week). […]

CT26.WT cancer cells [2] = experiment: Survival of mice with colon cancer (CT26.WT cells, intravenous model); assay type: in vivo, female BALB/cAnNRJ mice
From the text: as §1, with “Treatments started 4 days after the injection in the CT26WT colon cancer models (intraperitoneal and intravenous) and in the B16-F10 melanoma model.” left out
(§3) Murine cells (5th-7th passage) were cultured in 75-cm2 flask. […] Cells were counted again. […] After inoculating the last mice, the cells in the last tube were placed in a flask and monitored during several weeks under the microscope to ensure that all mice were inoculated with viable cells.
as §2

4T1 cancer cells = experiment: Survival of mice with triple negative breast cancer (4T1 cells, intravenous model); assay type: in vivo; conditions: for mean survival (FIG. 4): 100,000 4T1 cells tail vein, treatment from day 8, diets 28 days, capecitabine 450 mg/kg/day oral cycles, cisplatin 5 mg/kg weekly x4 ip, control 26.1 days; for Survival improvement vs untreated mice (mean, days): Breast cancer, 4T1 cells, 100.000, tail vein injection (iv)
From the text: as §1
(§4) Murine cells (5th-7th passage) were cultured in 75-cm2 flask. When the cells were approximately 60-70% confluent, medium was removed and cells were washed twice with sterile PBS. Then, cells were incubated with trypsin/EDTA solution for 2-3 min at 37° C. to allow cells to have a rounded shape but without detaching. Next, trypsin/EDTA solution was aspirated, cells were resuspended in 5 mL sterile PBS and the cell suspension was pipetted up and down to break up any cell aggregate before adding 10% FBS supplemented medium. Then, a working cell suspension (between 5×10^5-25×10^6 cells/mL depending on cancer model) was prepared. This suspension was centrifuged (5 min, 250 g) at room temperature. Medium was removed and cells were resuspended in warm 2.5% FBS supplemented medium. The working cell suspension was aliquoted into 2 mL tubes and they were kept at 37° C. in a humidified atmosphere containing 5% CO2 until use. Several minutes before the injection, tubes were centrifuged at 300 g 4° C. for 3 min, medium was removed and cells were resuspended in sterile PBS. Cells were counted again. Finally, a 1-mL syringe (insulin type with a 29-G×½″ needle) was filled with 0.2 mL of the working cell suspension, which was injected in the peritoneal cavity or in the tail vein of the mice. After inoculating the last mice, the cells in the last tube were placed in a flask and monitored during several weeks under the microscope to ensure that all mice were inoculated with viable cells.
One day before the start of the treatments, mice were housed in individual cages to avoid cannibalism. Treatments started four, seven or eight days (depending on the model) after injecting the cancer cells. Most treatments with the artificial diets lasted at least 4 weeks. Treatment with the artificial diets simply consisted of replacing their normal diet with an artificial diet in which the levels of specific AAs and lipids were manipulated. Sunitinib, and capecitabine were administered daily in the diet. Cisplatin and the anti-PD1 antibody were injected intraperitoneally. Animals were monitored daily and body weights were determined periodically (at least three times per week). […] Post-mortem examination was carried out to confirm the cause of death and to observe the extent of the disease. Autopsies confirmed the presence of tumors in all euthanized mice. […]

B16-F10 cells = experiment: Survival of mice with melanoma (B16-F10 cells, intravenous model); assay type: in vivo, female C57BL/6J mice; conditions: B16-F10 cells, 500.000, tail vein injection (iv), C57BL/6J mice
From the text: as §1, with “Treatments started 4 days after the injection in the CT26WT colon cancer models (intraperitoneal and intravenous) and in the B16-F10 melanoma model.” left out
as §3, §2

Renca cancer cells = experiment: Survival of mice with renal cancer (Renca cells, intraperitoneal model); assay type: in vivo, male BALB/cAnNRJ mice
From the text: as §1, §4, §2

Row | SMILES | mean survival (FIG. 2) (CT26.WT cancer cells [1]; 100,000 CT26.WT cells ip, treatment from day 4, P10 6 weeks, capecitabine 450 mg/kg/day oral cycles, control 24.6 days) [days] | days lived more than untreated mice (CT26.WT cancer cells [1]; 100,000 CT26.WT cells ip, treatment from day 4, diets 6 weeks, capecitabine 450 mg/kg/day, 7-day treatment+7-day rest, oral) [days] | Survival improvement vs untreated mice (mean, days) (CT26.WT cancer cells [1]; Colon cancer, CT26.WT cells, 10.000, intraperitoneal injection (ip)) | mean survival (FIG. 3) (CT26.WT cancer cells [2]; 100,000 CT26.WT cells tail vein, treatment from day 4, P6 28 days, capecitabine 450 mg/kg/day oral cycles, control 33.3 days) [days] | Survival improvement vs untreated mice (mean, days) (CT26.WT cancer cells [2]; Colon cancer, CT26.WT cells, 10.000, tail vein injection (iv)) [days] | premature deaths by drug toxicity (4T1 cancer cells; 4T1 iv model, capecitabine 450 mg/kg/day, 7-day treatment+7-day rest, oral, n=10) | mean survival (FIG. 4) (4T1 cancer cells) [days] | Survival improvement vs untreated mice (mean, days) (4T1 cancer cells) | Survival improvement vs untreated mice (mean, days) (B16-F10 cells) | mean survival (FIG. 1) (Renca cancer cells; 100,000 Renca cells ip, treatment from day 8, P2 28 days, sunitinib 60 mg/kg/day 28 days oral, anti-PD1 250 μg ip x4, control 35.2 days) [days] | Mean survival (Renca cancer cells; 150,000 Renca cells ip, treatment from day 7, 28 days, 10 days normal diet, 21 more days, sunitinib 60 mg/kg/day oral, control 30.75) [days] | Survival improvement vs. Control (Renca cancer cells; 150,000 Renca cells ip, treatment from day 7, Table 4 experiment) [days] | Survival improvement vs untreated mice (mean, days) (Renca cancer cells; Renal cancer, renca cells, 100.000, intraperitoneal injection (ip))
1 | CCCCCOC(=O)Nc1nc(=O)n([C@@H]2O[C@H](C)[C@@H](O)[C@H]2O)cc1F [Capecitabine] | 27.7 | 4.5 | +7.6 days | 36.7 | 0.0 | two mice died prematurely by excessive drug toxicity | 24.2 | +3.7 days | – | – | – | – | –
2 | N.N.[Cl][Pt][Cl] [Cisplatin] | – | – | – | – | – | – | 33.6 | +4.7 days | +3.5 days | – | – | – | –
3 | CCN(CC)CCNC(=O)c1c(C)[nH]c(/C=C2\C(=O)Nc3ccc(F)cc32)c1C [Sunitinib, Sunitinib malate] | – | – | – | – | – | – | – | – | – | 62.2 | 48 | 17.25 | +20.4 days
